Assays:
[1] = Thermodynamic solubility in PBS; assay type: physicochemical; details: PBS pH 7.4, 25 °C
[2] = target: T1, recombinant human thymidine kinase 1 (hTK1) (Homo sapiens, UniProt P04183); details: for kcat ± SD: apparent, varying substrate concentrations, 100 μM ATP, three replicates; for rkcat/Km (kcat/Km relative to that of dThd): current recombinant hTK1 preparation (specific activity 441 nmol/min/mg)
T1 sequence (P04183 1-234): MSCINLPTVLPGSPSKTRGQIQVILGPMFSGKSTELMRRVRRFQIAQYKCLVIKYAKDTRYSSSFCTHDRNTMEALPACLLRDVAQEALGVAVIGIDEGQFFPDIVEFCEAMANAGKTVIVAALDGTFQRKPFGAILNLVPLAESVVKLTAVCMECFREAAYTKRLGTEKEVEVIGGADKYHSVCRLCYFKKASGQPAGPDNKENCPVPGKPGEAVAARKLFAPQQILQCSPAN

[3] = target: T1, recombinant human thymidine kinase 1 (hTK1); details: different hTK1 enzyme preparation, previous study; cited from earlier work
intracranial RG2 glioma = details: rats bearing intracranial RG2 glioma, cited from earlier work
L929 TK (+) cells = details: cited from earlier work
[4] = target: T1, recombinant human thymidine kinase 1 (hTK1); details: PTA conditions

Substance	Solubility in PBS pH 7.4 [1]	kcat ± SD [2]	rkcat/Km (kcat/Km relative to that of dThd) [2]	rkcat/Km [3]	Boron concentration in tumor relative to normal brain (intracranial RG2 glioma)	Boron concentration in normal brain (intracranial RG2 glioma; normal brain)	Boron concentration in tumor (intracranial RG2 glioma; tumor)	In vitro uptake in L929 TK (+) cells relative to L929 TK (−) cells (L929 TK (+) cells)	Stability under phosphoryl transfer assay conditions (phosphorylated side products, dTMP) [4]
3-[5-{2-(2,3-dihydroxyprop-1-yl)-o-carboran-1-yl}pentan-1-yl]thymidine [Compound N5-2OH]	7-10 |g/mL	0.42 ± 0.03 S^-1	10.8%	35.8%	10 fold	2.6 μg B/g tumor	27.6 μg B/g tumor	5-10 fold	–
3-[1(2)-closo-1,7-Carboranylbutyltetrazol-5-ylmethyl]thymidine [9d1/2]	33.9 ± 1.4 |g/mL	0.47 ± 0.04 S^-1	8.9%	–	–	–	–	–	–
3-[1(2)-closo-1,7-Carboranylethyltetrazol-5-ylmethyl]thymidine [9b1/2]	133.1 ± 5.2 |g/mL	0.44 ± 0.03 S^-1	14.9%	–	–	–	–	–	–
3-[1(2)-closo-1,7-Carboranylpropyltetrazol-5-ylmethyl]thymidine [9c1/2]	84.2 ± 4.1 |g/mL	0.39 ± 0.04 S^-1	7.6%	–	–	–	–	–	–
3-[2-Imino-2-{3-(closo-1,7-carboranyl)propylamino}ethyl]thymidine [Compound 3f]	>15 mg/mL	–	–	–	–	–	–	–	did not appear to produce significant amounts of dTMP as a side product
3-[1(2)-closo-1,7-Carboranylethyltetrazol-5-yl]thymidine [11b1/2]	42.6 ± 1.0 |g/mL	0.35 ± 0.03 S^-1	–	–	–	–	–	–	–
3-[1(2)-closo-1,7-Carboranylbutyltetrazol-5-yl]thymidine [11d1/2]	13.3 - 13.8 |g/mL ^*	0.32 ± 0.02 S^-1	19.7%	–	–	–	–	–	–
3-[2-Imino-2-{2-(closo-1,7-carboranyl)ethylamino}ethyl]thymidine [Compound 3e]	>19.5 mg/mL	–	–	–	–	–	–	–	did not appear to produce significant amounts of dTMP as a side product
3-[1(2)-closo-1,7-Carboranylpropyltetrazol-5-yl]thymidine [11c1/2]	25.4 - 26.3 |g/mL^2	0.37 ± 0.06 S^-1	5.0%	–	–	–	–	–	–

From publication PMC3587680 (European journal of medicinal chemistry, 2012)
